In patent publication US8163771B2, “11 β-HSD1 modulators” (Exelixis, Inc., priority 2008, dated 2012):
pIC50: −log10 of the molar value.

Target: T1, recombinant human 11 β-HSD1 (Homo sapiens, UniProt P28845)
T1 construct: made in house; host or cells: E. coli
Experiment: 11 β-HSD1 SPA Assay (Scintillation Proximity Assay)
Type: biochemical
Method: (§1) Inhibition of 11 βHSD1 by test compounds was assessed in vitro by a Scintillation Proximity Assay (SPA). The assay was carried out in a 384-well assay plate in a total well volume of 26 μl and contained a mixture of tritiated cortisone substrate (40 nM), NADPH cofactor (1 mM), inhibitor in serial dilutions ([…] to 10 μM), and purified E. coli-expressed recombinant human 11 βHSD1 (30-100 nM) in assay buffer (50 mM HEPES, 100 mM KCl, 5 mM NaCl, and 2 mM MgCl2, pH7.4). Following mixing, the plate was incubated for 2 hours at room temperature. Reactions were stopped by addition of 30 μl of protein A YSi SPA beads (10 mg/ml) that had been pre-incubated with glycyrrhetinic acid (1 mM) and a monoclonal cortisol antibody (3 μg/ml). The plate was then incubated overnight at room temperature prior to reading on a Microbeta counter. Percent inhibition of each compound was calculated based on the background and the maximal signals. Wells that contained substrate without compound or enzyme were used as the background signal, while the wells that contained substrate and enzyme without any compound were used as the maximal signal. The calculation of the IC50 values for the inhibitors was performed by Activity Base.
as §1, with “β-HSD1” for “βHSD1”

T1 sequence (P28845 whole entry): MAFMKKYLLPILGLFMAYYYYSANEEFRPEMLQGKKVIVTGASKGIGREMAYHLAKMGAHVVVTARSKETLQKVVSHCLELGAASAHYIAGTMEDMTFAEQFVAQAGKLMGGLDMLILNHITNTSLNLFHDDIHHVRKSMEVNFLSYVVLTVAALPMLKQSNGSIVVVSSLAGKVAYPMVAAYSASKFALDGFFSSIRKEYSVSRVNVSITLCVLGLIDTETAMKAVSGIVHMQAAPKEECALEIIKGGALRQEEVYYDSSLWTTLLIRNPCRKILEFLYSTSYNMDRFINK

| Compound | pIC50 |
| --- | --- |
| CC(C)(C(=O)N[C@H]1C[C@H]2CC[C@@H](C1)N2c1ccc(C(=O)NC2CC2)cn1)c1ccccc1Cl [Example 34, 6-(3-endo-{[2-(2-chlorophenyl)-2-methylpropanoyl]amino}-8-azabicyclo[3.2.1]oct-8-yl)-N-cyclopropylpyridine-3-carboxamide] | > 6.70 |
| CC(C)(Oc1ccc(F)cc1F)C(=O)N[C@H]1C[C@H]2CC[C@@H](C1)N2c1ccc(C(=O)NC2CC2)cn1 [Example 35, N-cyclopropyl-6-[3-endo-({2-[(2,4-difluorophenyl)oxy]-2-methylpropanoyl}amino)-8-azabicyclo[3.2.1]oct-8-yl]pyridine-3-carboxamide] | > 6.70 |
| CC(C)(Oc1ccc(Cl)cc1)C(=O)N[C@H]1C[C@H]2CC[C@@H](C1)N2c1ncc(C(=O)NC2CC2)cn1 [Example 36, 2-[3-endo-({2-[(4-chlorophenyl)oxy]-2-methylpropanoyl}amino)-8-azabicyclo[3.2.1]oct-8-yl]-N-cyclopropylpyrimidine-5-carboxamide] | > 6.70 |
| CC(C)(Oc1ccc(C(F)(F)F)cc1)C(=O)N[C@H]1C[C@H]2CC[C@@H](C1)N2c1ccc(C(=O)NC2CC2)cn1 [Example 37, N-cyclopropyl-6-{3-endo-[(2-methyl-2-{[4-(trifluoromethyl)phenyl]oxy}propanoyl)amino]-8-azabicyclo[3.2.1]oct-8-yl}pyridine-3-carboxamide] | > 6.70 |
| CC(C)(Oc1ccc(C#N)cc1)C(=O)N[C@H]1C[C@H]2CC[C@@H](C1)N2c1ccc(C(=O)NC2CC2)cn1 [Example 38, 6-[3-endo-({2-[(4-cyanophenyl)oxy]-2-methylpropanoyl}amino)-8-azabicyclo[3.2.1]oct-8-yl]-N-cyclopropylpyridine-3-carboxamide] | > 6.70 |
| O=C(NC1CC1)c1ccc(N2[C@@H]3CC[C@H]2C[C@@H](NC(=O)C2(c4cccc(F)c4)CC2)C3)nc1 [Example 39, N-cyclopropyl-6-[3-endo-({[1-(3-fluorophenyl)cyclopropyl]carbonyl}amino)-8-azabicyclo[3.2.1]oct-8-yl]pyridine-3-carboxamide] | > 6.70 |
| Cc1cc(C(=O)NC2CC2)cnc1N1[C@@H]2CC[C@H]1C[C@@H](NC(=O)C(C)(C)Oc1ccc(Cl)cc1)C2 [Example 40, 6-[3-endo-({2-[(4-chlorophenyl)oxy]-2-methylpropanoyl}amino)-8-azabicyclo[3.2.1]oct-8-yl]-N-cyclopropyl-5-methylpyridine-3-carboxamide] | > 6.70 |
| CC(C)(Oc1ccc(Cl)cc1F)C(=O)N[C@H]1C[C@H]2CC[C@@H](C1)N2c1ccc(C(=O)NC2CC2)cn1 [Example 41, 6-[3-endo-({2-[(4-chloro-2-fluorophenyl)oxy]-2-methylpropanoyl}amino)-8-azabicyclo[3.2.1]oct-8-yl]-N-cyclopropylpyridine-3-carboxamide] | > 6.70 |
| CC(C)(Oc1ccc(Cl)c(Cl)c1)C(=O)N[C@H]1C[C@H]2CC[C@@H](C1)N2c1ccc(C(=O)NC2CC2)cn1 [Example 42, N-cyclopropyl-6-[3-endo-({2-[(3,4-dichlorophenyl)oxy]-2-methylpropanoyl}amino)-8-azabicyclo[3.2.1]oct-8-yl]pyridine-3-carboxamide] | > 6.70 |
| CC(C)(Oc1ccc(Cl)c(F)c1)C(=O)N[C@H]1C[C@H]2CC[C@@H](C1)N2c1ccc(C(=O)NC2CC2)cn1 [Example 43, 6-[3-endo-({2-[(4-chloro-3-fluorophenyl)oxy]-2-methylpropanoyl}amino)-8-azabicyclo[3.2.1]oct-8-yl]-N-cyclopropylpyridine-3-carboxamide] | > 6.70 |
| COc1ccc(OC(C)(C)C(=O)N[C@H]2C[C@H]3CC[C@@H](C2)N3c2ccc(C(=O)NC3CC3)cn2)cc1 [Example 44, N-cyclopropyl-6-{3-endo-[(2-methyl-2-{[4-(methyloxy)phenyl]oxy}pro-panoyl)amino]-8-azabicyclo[3.2.1]oct-8-yl}pyridine-3-carboxamide] | > 6.70 |
| O=C(NC1CC1)c1ccc(N2[C@@H]3CC[C@H]2C[C@@H](NC(=O)C2(Oc4ccccc4)CC2)C3)nc1 [Example 45, N-cyclopropyl-6-[3-endo-({[1-(phenyloxy)cyclopropyl]carbonyl}amino)-8-azabicyclo[3.2.1]oct-8-yl]pyridine-3-carboxamide] | > 6.70 |
| O=C(NC1CC1)c1ccc(N2[C@@H]3CC[C@H]2C[C@@H](NC(=O)C2(Oc4ccccc4)CCC2)C3)nc1 [Example 46, N-cyclopropyl-6-[3-endo-({[1-(phenyloxy)cyclobutyl]carbonyl}amino)-8-azabicyclo[3.2.1]oct-8-yl]pyridine-3-carboxamide] | > 6.70 |
| O=C(NC1CC1)c1ccc(N2[C@@H]3CC[C@H]2C[C@@H](NC(=O)C2(Oc4ccc(Cl)cc4)CCC2)C3)nc1 [Example 47, 6-{3-endo-[({1-[(4-chlorophenyl)oxy]cyclobutyl}carbonyl)amino]-8-azabicyclo[3.2.1]oct-8-yl}-N-cyclopropylpyridine-3-carboxamide] | > 6.70 |
| CC(Oc1ccccc1)C(=O)N[C@H]1C[C@H]2CC[C@@H](C1)N2c1ccc(C(=O)NC2CC2)cn1 (stereo partly drawn) [Example 48, N-cyclopropyl-6-(3-endo-{[2-(phenyloxy)propanoyl]amino}-8-azabicycio[3.2.1]oct-8-yl)pyridine-3-carboxamide] | > 5.70 |
| CC(Oc1ccc(Cl)cc1)C(=O)N[C@H]1C[C@H]2CC[C@@H](C1)N2c1ccc(C(=O)NC2CC2)cn1 (stereo partly drawn) [Example 49, 6-[3-endo-({2-[(4-chlorophenyl)oxy]propanoyl}amino)-8-azabicyclo[3.2.1]oct-8-yl]-N-cyclopropylpyridine-3-carboxamide] | > 5.70 |
| O=C(NC1CC1)c1ccc(N2[C@@H]3CC[C@H]2C[C@@H](NC(=O)C2(c4ccc(Cl)cc4)CCC2)C3)nc1 [Example 50, 6-[3-endo-({[1-(4-chlorophenyl)cyclobutyl]carbonyl}amino)-8-azabicyclo[3.2.1]oct-8-yl]-N-cyclopropylpyridine-3-carboxamide] | > 6.70 |
| Cc1nc(N2[C@@H]3CC[C@H]2C[C@@H](NC(=O)C(C)(C)Oc2ccc(Cl)cc2)C3)ccc1C(=O)NC1CC1 [Example 51, 6-[3-endo-({2-[(4-chlorophenyl)oxy]-2-methylpropanoyl}amino)-8-azabicyclo[3.2.1]oct-8-yl]-N-cyclopropyl-2-methylpyridine-3-carboxamide] | > 5.70 |
| CC(C)(Oc1ccc(F)cc1Cl)C(=O)N[C@H]1C[C@H]2CC[C@@H](C1)N2c1ccc(C(=O)NCC(F)(F)F)cn1 [Example 52, 6-[3-endo-({2-[(2-chloro-4-fluorophenyl)oxy]-2-methylpropanoyl}amino)-8-azabicyclo[3.2.1]oct-8-yl]-N-(2,2,2-trifluoroethyl)pyridine-3-carboxamide] | > 6.70 |
| CC(C)NC(=O)c1ccc(N2[C@@H]3CC[C@H]2C[C@@H](NC(=O)C(C)(C)Oc2ccc(Cl)cc2Cl)C3)nc1 [Example 54, 6-[3-endo-({2-[(2,4-dichlorophenyl)oxy]-2-methylpropanoyl}amino)-8-azabicyclo[3.2.1]oct-8-yl]-N-(1-methylethyl)pyridine-3-carboxamide] | > 6.70 |
| CC(C)(Oc1ccc(Cl)cc1Cl)C(=O)N[C@H]1C[C@H]2CC[C@@H](C1)N2c1ccc(C#N)cn1 [Example 55, N-[8-(5-cyanopyridin-2-yl)-8-azabicyclo[3.2.1]oct-3-endo-yl]-2-[(2,4-dichlorophenyl)oxy]-2-methylpropanamide] | > 6.70 |
| CC(C)(Oc1ccc(Cl)cc1Cl)C(=O)N[C@H]1C[C@H]2CC[C@@H](C1)N2c1ccc(C(N)=O)cn1 [Example 56, 6-[3-endo-({2-[(2,4-dichlorophenyl)oxy]-2-methylpropanoyl}amino)-8-azabicyclo[3.2.1]oct-8-yl]pyridine-3-carboxamide] | > 6.70 |
| CC(=O)c1ccc(N2[C@@H]3CC[C@H]2C[C@@H](NC(=O)C2(c4ccc(Cl)cc4)CC2)C3)nc1 [Example 57, N-[8-(5-acetylpyridin-2-yl)-8-azabicyclo[3.2.1]oct-3-endo-yl]-1-(4-chlorophenyl)cyclopropanecarboxamide] | > 6.70 |
| CC(=O)Nc1ccc(N2[C@@H]3CC[C@H]2C[C@@H](NC(=O)C2(c4ccc(Cl)cc4)CC2)C3)nc1 [Example 58, N-{8-[5-(acetylamino)pyridin-2-yl]-8-azabicyclo[3.2.1]oct-3-endo-yl}-1-(4-chlorophenyl)cyclopropanecarboxamide] | > 6.70 |
| O=C(Nc1ccc(N2[C@@H]3CC[C@H]2C[C@@H](NC(=O)C2(c4ccc(Cl)cc4)CC2)C3)nc1)C1CC1 [Example 59, 1-(4-chlorophenyl)-N-(8-{5-[(cyclopropylcarbonyl)amino]pyridin-2-yl}-8-azabicyclo[3.2.1]oct-3-endo-yl)cyclopropanecarboxamide] | > 6.70 |
